# Measurements as given in US4480030A, “Tripeptide derivatives and their application in assaying enzymes” (Pentapharm A.G., priority 1980, dated 1984).
# Square brackets hold non-standard residues; d marks the D form. Peptide text beside a SMILES is read from it. * marks the point of attachment. dAad = N[C@H](CCCC(=O)O)C(=O)O; pNA = O=[N+]([O-])c1ccc(N*)cc1; Cbz = O=C(OCc1ccccc1)*
# How the values were obtained:
# bovine factor Xa = target: T1, bovine factor Xa (Bos taurus, UniProt P00743); experiment: Activity of bovine factor Xa solution on chromogenic/fluorogenic substrate (split product H-R5 released); assay type: biochemical; settings: substrate concentration 2 × 10^-4; TRIS-imidazole buffer pH 8.4, ionic strength 0.3, 37° C.; factor Xa preparation "Diagen"; value calculated for 1 ml of factor Xa solution
# T1 construct: purchased Diagnostic Reagents Ltd., Thame, Great Britain factor Xa preparation "Diagen"
# T1 sequence (P00743 234-492 limits assumed): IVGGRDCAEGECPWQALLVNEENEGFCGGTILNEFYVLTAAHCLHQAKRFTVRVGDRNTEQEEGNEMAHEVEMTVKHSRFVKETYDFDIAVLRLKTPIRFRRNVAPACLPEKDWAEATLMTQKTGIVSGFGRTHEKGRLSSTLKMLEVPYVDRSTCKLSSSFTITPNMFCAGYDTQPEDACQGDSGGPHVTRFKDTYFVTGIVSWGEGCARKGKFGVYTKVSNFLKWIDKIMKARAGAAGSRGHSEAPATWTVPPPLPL
# T1 sequence (P00743 41-180 partner limits assumed): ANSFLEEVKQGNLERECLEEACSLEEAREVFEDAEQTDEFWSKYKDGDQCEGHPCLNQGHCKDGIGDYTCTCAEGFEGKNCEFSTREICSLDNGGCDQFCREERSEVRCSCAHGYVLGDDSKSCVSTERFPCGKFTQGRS
# Experimental: (§1) The values of the factor Xa activity given in Table 4 were determined experimentally in the manner described hereinafter:
# For determining the activity of bovine factor Xa 1.8 ml of TRIS-imidazole buffer having a pH of 8.4 and an ionic strength of 0.3 was well mixed at 37° C. with 0.025 ml of an aqueous solution of factor Xa preparation "Diagen" (furnisher: Diagnostic Reagents Ltd., Thame, Great Britain) obtained by dissolving the contents of one vial in 0.5 ml of water. To the mixture there was added 0.2 ml of a 2×10^-3 M aqueous solution of a substrate of the invention. Thereafter, the quantity of split product H--R^5 in nanomoles released per minute was determined, and the corresponding value of 1 ml of factor Xa solution was calculated.
# human factor Xa = target: T2, human factor Xa (Homo sapiens, UniProt P00742); experiment: Activity of factor Xa obtained by RVV activation of factor X in normal human blood plasma on substrate (split product H-R5 released); assay type: biochemical; settings: substrate concentration 2 × 10^-4; TRIS-imidazole buffer pH 8.4, ionic strength 0.3, 37° C.; citrated plasma activated with Russel viper venom 75 seconds; value calculated for 1 ml of citrated plasma
# T2 construct: from tissue
# T2 sequence (P00742 235-488 limits assumed): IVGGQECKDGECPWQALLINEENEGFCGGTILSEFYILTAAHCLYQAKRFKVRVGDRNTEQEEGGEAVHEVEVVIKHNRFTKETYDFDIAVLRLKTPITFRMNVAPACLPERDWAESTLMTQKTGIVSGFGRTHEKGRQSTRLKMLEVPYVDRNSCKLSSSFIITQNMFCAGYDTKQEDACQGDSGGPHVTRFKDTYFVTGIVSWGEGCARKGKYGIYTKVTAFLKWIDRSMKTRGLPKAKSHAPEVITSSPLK
# T2 sequence (P00742 41-179 partner limits assumed): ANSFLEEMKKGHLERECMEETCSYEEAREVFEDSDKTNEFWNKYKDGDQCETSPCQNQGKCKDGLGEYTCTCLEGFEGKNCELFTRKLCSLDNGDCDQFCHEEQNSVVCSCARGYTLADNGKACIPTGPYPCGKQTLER
# Experimental: as §1
# For determining the activity of human factor Xa 0.01 ml of normal citrated plasma was mixed with 0.20 ml of a solution of Russel viper venom in TRIS-imidazole buffer having a pH of 8.4 and an ionic strength of 0.3 and containing 15 mmoles of CaCl2 […]. The mixture was incubated for 75 seconds at 37° C. in order to activate factor X present in the plasma and convert it completely into factor Xa. To the incubate there was added first 1.40 ml of TRIS-imidazole buffer (pH 8.4, ionic strength 0.3) heated to 37° C. and then 0.40 ml of a 2×10^-3 M aqueous solution of a substrate of the invention. Thereafter, the quantity of split produce H--R^5 in nanomoles released per minute was determined, and the corresponding value for 1 ml of citrated plasma was calculated.
Compound,"Activity of 1 ml of aqueous solution of bovine factor Xa, expressed in nanomoles of split product H--R^5 released per minute (bovine factor Xa)","Activity of factor Xa as obtained by activation of factor X in 1 ml of normal human blood plasma by means of RVV, expressed in nanomoles of split product H--R^5 released per minute (human factor Xa)"
2-(4-Cbo-- amino)-phenylacetyl-D-Nval--Gly--Arg--pNA.HBr [Example 53],680 nanomoles of split product H--,510 nanomoles of split product H--
4-Aminomethyl-cyclohexyl-carbonyl-bonyl-D-Leu--Sar--Arg--pNA.2HBr [Example 43],60 nanomoles of split product H--,30 nanomoles of split product H--
"N=C(N)NCCC[C@H](NC(=O)CNC(=O)[C@@H](CCC(=O)O)NC(=O)OCc1ccccc1)C(=O)Nc1ccc([N+](=O)[O-])cc1 [Example 96, Cbo--D-Glu--Gly--Arg--pNA] (Cbz-[dE]-Gly-Arg-pNA)",830 nanomoles of split product H--,505 nanomoles of split product H--
"N=C(N)NCCC[C@H](NC(=O)CNC(=O)[C@@H](CCCC(=O)O)NC(=O)OCc1ccccc1)C(=O)Nc1ccc([N+](=O)[O-])cc1 [Example 102, Cbo--D-Aadi--Gly--Arg--pNA] (Cbz-[dAad]-Gly-Arg-pNA)",1030 nanomoles of split product H--,905 nanomoles of split product H--
BOC--D-(α)-AOA--Gly--Arg--pNA.AcOH [Example 84],2210 nanomoles of split product H--,1690 nanomoles of split product H--
Cbo--4-aminomethyl-cyclohexyl-carbonyl-D-Leu--176 Sar--Arg--pNA.HBr [Example 42],30 nanomoles of split product H--,20 nanomoles of split product H--
